# Data taken from PubChem BioAssay AID280 (DTP/NCI, 2004).
# “And” between values parts separate entries of the source, which are not always exact repeats. Identical values can stand only once. Inconclusive results and toxic doses are left out.
# Test system: nude mice, LOX melanoma ip, survival T/C
# Test: NCI In Vivo Anticancer Drug Screen. Data for tumor model Human Amelanotic Melanoma (LOX) (intraperitoneal) in NU/NU BALB/C (nude) mice
# Settings: endpoint: median survival time, schedule: Q04DX003 (ip), higher = longer survival
# Protocol: The antitumor activity of compounds was measured in mice bearing transplantable tumors. Survival or tumor size were measured and the results are expressed as the measurement made in the treated group (T) divided by the measurement made in the vehicle treated control group (C). The tumor model used in this assay is Human Amelanotic Melanoma (LOX) (intraperitoneal) in NU/NU BALB/C (nude) mice
# [1] = dose: 75.0 mg/kg/injection, vehicle: water
# [2] = dose: 150.0 mg/kg/injection, vehicle: water
# [3] = dose: 300.0 mg/kg/injection, vehicle: water
# [4] = dose: 1200.0 mg/kg/injection, vehicle: water
# [5] = dose: 12.5 mg/kg/injection, vehicle: water
# [6] = dose: 25.0 mg/kg/injection, vehicle: water
# [7] = dose: 50.0 mg/kg/injection, vehicle: water
# [8] = dose: 100.0 mg/kg/injection, vehicle: water
# [9] = dose: 12.5 mg/kg/injection, vehicle: saline with Tween-80
# [10] = dose: 25.0 mg/kg/injection, vehicle: saline with Tween-80
# [11] = dose: 50.0 mg/kg/injection, vehicle: saline with Tween-80
# [12] = dose: 100.0 mg/kg/injection, vehicle: saline with Tween-80
# [13] = dose: 37.5 mg/kg/injection, vehicle: Klucel (hydroxypropylcellulose) (HPC)
# [14] = dose: 75.0 mg/kg/injection, vehicle: Klucel (hydroxypropylcellulose) (HPC)
# [15] = dose: 300.0 mg/kg/injection, vehicle: Klucel (hydroxypropylcellulose) (HPC)
compound,measurement,setting,value
COc1ccc2[nH]c3ccc4cc[n+](CCN5CCC(C6CCN(CC[n+]7ccc8ccc9[nH]c%10ccc(OC)cc%10c9c8c7)CC6)CC5)cc4c3c2c1,T/C,"dose: 4.0 mg/kg/injection, vehicle: water",153 % of control
same,T/C,"dose: 13.7 mg/kg/injection, vehicle: water",156 % of control
same,T/C,"dose: 16.0 mg/kg/injection, vehicle: water",176 % of control
same,T/C,"dose: 22.8 mg/kg/injection, vehicle: water",176 % of control
same,T/C,"dose: 23.04 mg/kg/injection, vehicle: water",203 % of control
same,T/C,"dose: 32.0 mg/kg/injection, vehicle: water",187 % of control
same,T/C,"dose: 38.0 mg/kg/injection, vehicle: water",207 % of control
same,T/C,"dose: 38.4 mg/kg/injection, vehicle: water",223 % of control
same,T/C,"dose: 64.0 mg/kg/injection, vehicle: water",192 % of control
CCOC(=O)N(C)N=NC,T/C,"dose: 7.5 mg/kg/injection, vehicle: saline",108 % of control and 109 % of control
same,T/C,"dose: 15.0 mg/kg/injection, vehicle: saline",107 % of control and 114 % of control (2×)
same,T/C,"dose: 30.0 mg/kg/injection, vehicle: saline",121 % of control
same,T/C,"dose: 60.0 mg/kg/injection, vehicle: saline",194 % of control
same,T/C,"dose: 120.0 mg/kg/injection, vehicle: saline",172 % of control and 191 % of control and 205 % of control
CC(=O)NO,T/C,[1],101 % of control
same,T/C,[2],101 % of control
same,T/C,[3],103 % of control
same,T/C,"dose: 600.0 mg/kg/injection, vehicle: water",103 % of control
same,T/C,[4],92 % of control
O=NNc1cccnc1,T/C,"dose: 6.25 mg/kg/injection, vehicle: water",100 % of control and 101 % of control
same,T/C,[5],109 % of control and 101 % of control
same,T/C,[6],113 % of control and 98 % of control
same,T/C,[7],114 % of control and 96 % of control
same,T/C,[8],103 % of control and 117 % of control
O=C1c2cccc(NCCCNCCO)c2C(=O)c2cccc(NCCCNCCO)c21,T/C,"dose: 4.69 mg/kg/injection, vehicle: saline",116 % of control
same,T/C,"dose: 6.75 mg/kg/injection, vehicle: acid diluted with saline",113 % of control and 97 % of control
same,T/C,"dose: 9.38 mg/kg/injection, vehicle: saline",124 % of control
same,T/C,"dose: 11.0 mg/kg/injection, vehicle: acid diluted with saline",117 % of control
same,T/C,"dose: 11.25 mg/kg/injection, vehicle: acid diluted with saline",97 % of control
same,T/C,"dose: 18.7 mg/kg/injection, vehicle: acid diluted with saline",111 % of control
same,T/C,"dose: 18.75 mg/kg/injection, vehicle: acid diluted with saline",106 % of control
same,T/C,"dose: 31.25 mg/kg/injection, vehicle: acid diluted with saline",112 % of control
same,T/C,"dose: 37.5 mg/kg/injection, vehicle: saline",105 % of control
same,T/C,"dose: 75.0 mg/kg/injection, vehicle: saline",86 % of control
[CH3][Sn]([CH3])([Cl])[S]CCN,T/C,"dose: 6.25 mg/kg/injection, vehicle: saline with Tween-80",101 % of control
same,T/C,[9],109 % of control
same,T/C,[10],105 % of control
same,T/C,[11],115 % of control
same,T/C,[12],103 % of control
CC1=C(C(N)=O)C(c2ccccc2)NC(=S)N1 (configuration not stated),T/C,"dose: 25.0 mg/kg/injection, vehicle: Klucel (hydroxypropylcellulose) (HPC)",96 % of control
same,T/C,"dose: 50.0 mg/kg/injection, vehicle: Klucel (hydroxypropylcellulose) (HPC)",98 % of control
same,T/C,"dose: 100.0 mg/kg/injection, vehicle: Klucel (hydroxypropylcellulose) (HPC)",97 % of control
same,T/C,"dose: 200.0 mg/kg/injection, vehicle: Klucel (hydroxypropylcellulose) (HPC)",95 % of control
same,T/C,"dose: 400.0 mg/kg/injection, vehicle: Klucel (hydroxypropylcellulose) (HPC)",86 % of control
CCCCCCSc1nc(COC(=O)NC)c(COC(=O)NC)n1C,T/C,"dose: 16.85 mg/kg/injection, vehicle: saline",102 % of control
same,T/C,"dose: 33.7 mg/kg/injection, vehicle: saline",90 % of control
same,T/C,"dose: 67.5 mg/kg/injection, vehicle: saline",93 % of control
same,T/C,"dose: 135.0 mg/kg/injection, vehicle: saline",107 % of control
same,T/C,"dose: 270.0 mg/kg/injection, vehicle: saline",123 % of control
CCOC(=O)Nc1cc2c(c(N)n1)N=C(c1ccccc1)CN2,T/C,"dose: 0.94 mg/kg/injection, vehicle: saline with Tween-80",103 % of control
same,T/C,"dose: 1.88 mg/kg/injection, vehicle: saline with Tween-80",107 % of control
same,T/C,"dose: 3.75 mg/kg/injection, vehicle: saline with Tween-80",119 % of control
same,T/C,"dose: 7.5 mg/kg/injection, vehicle: saline with Tween-80",121 % of control
C=C1c2cccc(O)c2C(O)=C2C(=O)[C@]3(O)C(O)=C(C(N)=O)C(=O)[C@@H](N(C)C)[C@@H]3[C@@H](O)[C@H]12,T/C,[13],94 % of control
same,T/C,[14],91 % of control
same,T/C,[15],92 % of control
[Na+],T/C,[1],104 % of control
same,T/C,[2],95 % of control
same,T/C,[3],108 % of control
same,T/C,[4],99 % of control
Nc1ccc2ccc(N)cc2c1,T/C,[10],102 % of control
same,T/C,[11],101 % of control
same,T/C,[12],102 % of control
same,T/C,"dose: 200.0 mg/kg/injection, vehicle: saline with Tween-80",91 % of control
same,T/C,"dose: 400.0 mg/kg/injection, vehicle: saline with Tween-80",101 % of control
CCCCN1C(=O)N(c2ccc(OCC)cc2)C2N(CCCC)C1C(C)(C)C2(C)C (configuration not stated),T/C,"dose: 15.0 mg/kg/injection, vehicle: saline with Tween-80",101 % of control
same,T/C,"dose: 30.0 mg/kg/injection, vehicle: saline with Tween-80",107 % of control
same,T/C,"dose: 60.0 mg/kg/injection, vehicle: saline with Tween-80",101 % of control and 102 % of control
same,T/C,"dose: 120.0 mg/kg/injection, vehicle: saline with Tween-80",101 % of control
same,T/C,"dose: 240.0 mg/kg/injection, vehicle: saline with Tween-80",98 % of control
C=CCOc1cc2c(cc1C(C)c1ccc(OC)cc1)OCO2 (configuration not stated),T/C,[13],101 % of control
same,T/C,[14],96 % of control
same,T/C,"dose: 150.0 mg/kg/injection, vehicle: Klucel (hydroxypropylcellulose) (HPC)",109 % of control
same,T/C,[15],112 % of control
[Cl][Hg][Cl],T/C,"dose: 0.63 mg/kg/injection, vehicle: saline",88 % of control and 96 % of control
same,T/C,"dose: 2.5 mg/kg/injection, vehicle: saline",95 % of control
same,T/C,"dose: 5.0 mg/kg/injection, vehicle: saline",91 % of control
CN1CCN(CN2C(=O)C3C4C=CC(C3C2=O)C2C3C(=O)N(CN5CCN(C)CC5)C(=O)C3C42)CC1 (configuration not stated),T/C,[5],104 % of control
same,T/C,[6],109 % of control
same,T/C,[7],110 % of control
same,T/C,[8],106 % of control
c1ccc([Te][Te]c2ccccc2)cc1,T/C,"dose: 37.5 mg/kg/injection, vehicle: saline with Tween-80",102 % of control
same,T/C,"dose: 75.0 mg/kg/injection, vehicle: saline with Tween-80",92 % of control
same,T/C,"dose: 150.0 mg/kg/injection, vehicle: saline with Tween-80",112 % of control
Nc1nc2c(C(=O)N3CCCC3)nnn2c2ccccc12,T/C,[9],96 % of control
same,T/C,[10],102 % of control
same,T/C,[11],92 % of control
